Data set [1] is described as follows: Cytotoxicity in HepG2 cells, Resazurin assay. In kind it is cell-based. The conditions noted are these: human, incubated for 4 days, Resazurin viability. (In general: Resazurin is reduced to fluorescent resorufin, in cell work by metabolically active cells.)
Data set [2] has as its system HBV. Put plainly: Anti-HBV activity, HepG2.117 cell line (Tet-off), intracellular HBV DNA by realtime PCR. The conditions noted are these: Hepatitis B virus, HepG2.117, 72 h, HepG2.117 cells, 3 days of treatment. In kind it is cell-based, Hepatitis B virus.
Data set [3] relates to HBV. The data set can be described thus: Anti-HBV activity, HepG2.2.15 cell line, HBV DNA from secreted virions by realtime PCR. The class given is cell-based, Hepatitis B virus. The conditions noted are these: Hepatitis B virus, HepG2.2.15, 144 h, HepG2.2.15 cells, 6 days of treatment.

`Cc1sc(S(=O)(=O)NC2(C(F)(F)F)CC2)cc1C(=O)Nc1ccc(F)c(C#N)c1` [Compound 53, N-(3-cyano-4-fluoro-phenyl)-2-methyl-5-[[1-(trifluoromethyl)cyclo-propyl]sulfamoyl]thiophene-3-carboxamide]: the half-maximal cytotoxic concentration (CC50) – broadly, the concentration that lowers cell viability or growth by half – at 4 days in data set [1] worked out at 13700 nM. Besides, the EC50 (in general, the concentration at which the effect is half-maximal) in the data set with HBV [2] is 140 nM; with HBV [3], 120 nM.

Turning to `Cc1cc(NC(=O)c2cc(S(=O)(=O)N[C@H]3CCOC3)sc2C2CC2)ccc1F` [Compound 6, 2-cyclopropyl-N-(4-fluoro-3-methyl-phenyl)-5-[[(3S)-tetrahydrofuran-3-yl]sulfamoyl]thiophene-3-carboxamide], in data set [1], the 50% cytotoxic concentration (CC50) at 4 days is > 25000 nM. The EC50 worked out at 680 nM with HBV [2] and 580 nM in the data set with HBV [3].

Consider `CCc1sc(S(=O)(=O)N[C@H]2CCOC2)cc1C(=O)Nc1ccc(F)c(C)c1` [Compound 14, 2-ethyl-N-(4-fluoro-3-methyl-phenyl)-5-[[(3S)-tetrahydrofuran-3-yl]-sulfamoyl]thiophene-3-carboxamide], for which the CC50 at 4 days in data set [1] is > 25000 nM. Besides, the EC50 in the data set on HBV [2] was 130 nM; with HBV [3], 630 nM.

As for `Cc1cc(NC(=O)c2cc(S(=O)(=O)NC(C)(C)C(N)=O)sc2C)ccc1F` [Compound 33, 5-[(2-Amino-1,1-dimethyl-2-oxoethyl)sulfamoyl]-N-(4-fluoro-3-methylphenyl)-2-methylthiophene-3-carboxamide], in data set [1], the CC50 at 4 days is > 25000 nM. For the same molecule, the EC50 was 130 nM with HBV [2] and 140 nM with HBV [3].

`Cc1sc(S(=O)(=O)NC(C)(C)C)cc1C(=O)Nc1ccc(F)c(F)c1` [Compound 17, 5-(tert-butylsulfamoyl)-N-(3,4-difluorophenyl)-2-methyl-thiophene-3-carboxamide] returned a CC50 at 4 days in data set [1] of 11700 nM. The EC50 worked out at 130 nM with HBV [2] and 120 nM in the data set on HBV [3].

In the case of `Cc1cc(NC(=O)c2csc(S(=O)(=O)N[C@H]3CCOC3)c2)ccc1F` [Compound 1, N-(4-fluoro-3-methyl-phenyl)-5-[[(3S)-tetrahydrofuran-3-yl]sulfamoyl]thiophene-3-carboxamide], the CC50 at 4 days in data set [1] is > 25000 nM. For the same molecule, the EC50 with HBV [2] is 320 nM; in the data set with HBV [3], 170 nM.

As to `Cc1sc(S(=O)(=O)NC2(C)COC2)cc1C(=O)Nc1cc(F)c(F)c(Cl)c1` [Compound 19, N-(3-chloro-4,5-difluoro-phenyl)-2-methyl-5-[(3-methyloxetan-3-yl)-sulfamoyl]thiophene-3-carboxamide], the 50% cytotoxic concentration (CC50) at 4 days in data set [1] is > 25000 nM. For the same molecule, the values for the concentration giving a half-maximal response (EC50) in the data set on HBV [2] and with HBV [3] were 100 nM and 63 nM, respectively.

Consider `COC(=O)C(C)(C)NS(=O)(=O)c1cc(C(=O)Nc2ccc(F)c(C)c2)c(C)s1` [Compound 31, Methyl N-({4-[(4-fluoro-3-methylphenyl)carbamoyl]-5-methylthiophen-2-yl}sulfonyl)-2-methylalaninate], for which, in data set [1], the CC50 at 4 days was > 25000 nM. For the same molecule, the concentration giving a half-maximal response (EC50) in the data set with HBV [2] was found to be 170 nM; with HBV [3] it was 520 nM.

As for `Cc1cc(NC(=O)c2cc(S(=O)(=O)N[C@H](C)CO)sc2Cl)ccc1F` [Compound 3, 2-chloro-N-(4-fluoro-3-methyl-phenyl)-5-[[(1R)-2-hydroxy-1-methyl-ethyl]sulfamoyl]thiophene-3-carboxamide], the half-maximal cytotoxic concentration (CC50) at 4 days in data set [1] was > 25000 nM. Also, the figures for the EC50 in the data set on HBV [2] and in the data set on HBV [3] were 340 nM and 210 nM, respectively.

Regarding `Cc1sc(S(=O)(=O)N[C@H](C)C(F)(F)F)cc1C(=O)Nc1ccc(F)c(C#N)c1` [Compound 51, N-(3-cyano-4-fluoro-phenyl)-2-methyl-5-[[(1R)-2,2,2-trifluoro-1-methyl-ethyl]sulfamoyl]thiophene-3-carboxamide], the CC50 at 4 days in data set [1] is > 25000 nM. Besides, the EC50 stood at 170 nM in the data set with HBV [2] and 250 nM with HBV [3].

`Cc1sc(S(=O)(=O)N[C@H](C)C(C)(F)F)cc1C(=O)Nc1ccc(F)c(F)c1` [Compound 55, 5-[[(1R)-2,2-difluoro-1-methyl-propyl]sulfamoyl]-N-(3,4-difluorophenyl)-2-methyl-thiophene-3-carboxamide]: in data set [1], it took 14600 nM to reach half-maximal cytotoxicity (CC50 at 4 days). Also, the EC50 amounted to 90 nM with HBV [2] and 32 nM with HBV [3].

For the molecule `Cc1cc(NC(=O)c2scc(S(=O)(=O)NC3(C)COC3)c2C)ccc1F` [Compound 12, N-(4-fluoro-3-methyl-phenyl)-3-methyl-4-[(3-methyloxetan-3-yl)-sulfamoyl]thiophene-2-carboxamide], the CC50 at 4 days in data set [1] was > 25000 nM. Also, the 50% effective concentration (EC50) came out at 190 nM in the data set on HBV [2] and 160 nM in the data set with HBV [3].

Consider `Cc1sc(S(=O)(=O)NC(C)(C)C(N)=O)cc1C(=O)Nc1ccc(F)c(F)c1` [Compound 32, 5-[(2-Amino-1,1-dimethyl-2-oxoethyl)sulfamoyl]-N-(3,4-difluorophenyl)-2-methylthiophene-3-carboxamide], for which the CC50 at 4 days in data set [1] was > 25000 nM. In addition, the figures for the concentration for a half-maximal effect (EC50) in the data set on HBV [2] and in the data set with HBV [3] were 300 nM and 220 nM, respectively.

Turning to `COC(=O)C(C)(C)NS(=O)(=O)c1cc(C(=O)Nc2ccc(F)c(F)c2)c(C)s1` [Compound 30, Methyl N-({4-[(3,4-difluorophenyl)carbamoyl]-5-methylthiophen-2-yl}sulfonyl)-2-methylalaninate], in data set [1], the 50% cytotoxic concentration (CC50) at 4 days was > 25000 nM. For the same molecule, the results for the EC50 in the data set with HBV [2] and with HBV [3] were 790 nM and > 1000 nM, respectively.

In turn, `Cc1sc(S(=O)(=O)N[C@H](C)C(F)(F)F)cc1C(=O)Nc1ccc(F)c(F)c1` [Compound 56, N-(3,4-difluorophenyl)-2-methyl-5-[[(1R)-2,2,2-trifluoro-1-methyl-ethyl]sulfamoyl]thiophene-3-carboxamide] displayed a CC50 at 4 days in data set [1] of 14900 nM. Further, the results for the EC50 in the data set with HBV [2] and in the data set on HBV [3] were 70 nM and 130 nM, respectively.

`Cc1cc(NC(=O)c2cc(S(=O)(=O)N[C@H](C)C(F)(F)F)sc2C)ccc1F` [Compound 39, N-(4-Fluoro-3-methylphenyl)-2-methyl-5-{[(1R)-2,2,2-trifluoro-1-methylethyl]sulfamoyl}thiophene-3-carboxamide]: the CC50 at 4 days in data set [1] was > 25000 nM. Moreover, the EC50 turned out to be 60 nM in the data set on HBV [2] and 70 nM in the data set on HBV [3].

For `Cc1sc(S(=O)(=O)NC2(C)COC2)cc1C(=O)Nc1cccc(C(F)(F)F)c1` [Compound 22, 2-methyl-5-[(3-methyloxetan-3-yl)sulfamoyl]-N-[3-(trifluoromethyl)-phenyl]thiophene-3-carboxamide], in data set [1], the CC50 at 4 days was > 25000 nM. For the same molecule, the EC50 came out at 230 nM in the data set with HBV [2] and 250 nM in the data set on HBV [3].

In the case of `Cc1sc(S(=O)(=O)NC2(C(F)(F)F)CCOC2)cc1C(=O)Nc1ccc(F)c(F)c1` (stereo not drawn) [Compound 49, N-(3,4-difluorophenyl)-2-methyl-5-[[3-(trifluoromethyl)tetrahydrofuran-3-yl]sulfamoyl]thiophene-3-carboxamide], the 50% cytotoxic concentration (CC50) at 4 days in data set [1] was > 25000 nM. The values for the EC50 in the data set with HBV [2] and in the data set on HBV [3] were 270 nM and 290 nM, respectively.

For `Cc1cc(NC(=O)c2cc(S(=O)(=O)NC(C)(C)C)sc2C)cc(F)c1F` [Compound 23, 5-(tert-Butylsulfamoyl)-N-(3,4-difluoro-5-methylphenyl)-2-methylthiophene-3-carboxamide], the CC50 at 4 days in data set [1] was determined as 18100 nM. The EC50 in the data set with HBV [2] came to 32 nM; in the data set with HBV [3] it was 110 nM.

In the case of `Cc1cc(NC(=O)c2cc(S(=O)(=O)NC3(C)COC3)sc2C)ccc1F` [Compound 15, N-(4-fluoro-3-methyl-phenyl)-2-methyl-5-[(3-methyloxetan-3-yl)-sulfamoyl]thiophene-3-carboxamide], in data set [1], the CC50 at 4 days was > 25000 nM. Also, the EC50 in the data set with HBV [2] worked out at 160 nM; with HBV [3] it was 27 nM.

Turning to `Cc1sc(S(=O)(=O)NC(C)(C)C(F)(F)F)cc1C(=O)Nc1ccc(F)c(F)c1` [Compound 50, N-(3,4-difluorophenyl)-2-methyl-5-[(2,2,2-trifluoro-1,1-dimethyl-ethyl)sulfamoyl]thiophene-3-carboxamide], in data set [1], the CC50 at 4 days was > 25000 nM. Also, the EC50 in the data set on HBV [2] came out at 190 nM; in the data set on HBV [3] it was 140 nM.

Take `Cc1cc(NC(=O)c2cc(S(=O)(=O)N[C@H]3CCOC3)sc2Cl)ccc1F` [Compound 4, 2-chloro-N-(4-fluoro-3-methyl-phenyl)-5-[[(3S)-tetrahydrofuran-3-yl]-sulfamoyl]thiophene-3-carboxamide]: the CC50 at 4 days in data set [1] was > 25000 nM. The EC50 in the data set with HBV [2] was 560 nM; with HBV [3] it was 570 nM.

`Cc1sc(S(=O)(=O)N[C@H](C)C(F)(F)F)cc1C(=O)Nc1ccc(F)c(Cl)c1` [Compound 38, N-(3-Chloro-4-fluorophenyl)-2-methyl-5-{[(1R)-2,2,2-trifluoro-1-methylethyl]sulfamoyl}thiophene-3-carboxamide] displayed a CC50 at 4 days in data set [1] of 14400 nM. Also, the values for the EC50 in the data set on HBV [2] and in the data set with HBV [3] were 80 nM and 40 nM, respectively.

As to `Cc1sc(S(=O)(=O)N[C@H](C)C(F)(F)F)cc1C(=O)Nc1cc(F)c(F)c(Cl)c1` [Compound 36, N-(3-Chloro-4,5-difluorophenyl)-2-methyl-5-{[(1R)-2,2,2-trifluoro-1-methylethyl]sulfamoyl}thiophene-3-carboxamide], the CC50 at 4 days in data set [1] worked out at 7100 nM. In addition, the EC50 in the data set with HBV [2] is 160 nM; with HBV [3], 140 nM.

For `Cc1cc(NC(=O)c2cc(S(=O)(=O)N[C@H]3CCOC3)cs2)ccc1F` [Compound 8, N-(4-fluoro-3-methyl-phenyl)-4-[[(3S)-tetrahydrofuran-3-yl]sulfamoyl]thiophene-2-carboxamide], the cytotoxic concentration (CC50) at 4 days in data set [1] was > 25000 nM. In addition, the values for the EC50 in the data set with HBV [2] and in the data set on HBV [3] were 160 nM and 100 nM, respectively.

In the case of `Cc1cc(NC(=O)c2cc(S(=O)(=O)N[C@H]3CCOC3)sc2C)ccc1F` [Compound 7, N-(4-fluoro-3-methyl-phenyl)-2-methyl-5-[[(3S)-tetrahydrofuran-3-yl]-sulfamoyl]thiophene-3-carboxamide], the CC50 at 4 days in data set [1] was > 25000 nM. In addition, the EC50 in the data set with HBV [2] is 160 nM; with HBV [3], 170 nM.

In turn, `Cc1sc(S(=O)(=O)NC(C)(C)C)cc1C(=O)Nc1cccc(C(F)(F)F)c1` [Compound 21, 5-(tert-butylsulfamoyl)-2-methyl-N-[3-(trifluoromethyl)phenyl]thiophene-3-carboxamide] yielded a CC50 at 4 days in data set [1] of 10500 nM. Further, the EC50 was > 1000 nM in the data set with HBV [2] and 320 nM in the data set on HBV [3].
